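Each compound was tested at five concentrations against cells in 96-well plates for 48 hours. At the GI50, growth is halved.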 The source made the active and inactive calls. Cut-off read from the data, not from the text of the source: active = GI50 up to about 1.1 µM and inactive = higher.
What was measured:
Assay in all cases: inhibition of tumour cell growth, NCI panel, 48 h
HCT-116 = tested on: HCT-116
OVCAR-3 = tested on: OVCAR-3
TK-10 = tested on: TK-10
RPMI-8226 = tested on: RPMI-8226
786-0 = tested on: 786-0
NCI-H23 = tested on: NCI-H23
Hs-578T = tested on: Hs-578T
MOLT-4 = tested on: MOLT-4
OVCAR-5 = tested on: OVCAR-5
EKVX = tested on: EKVX
M14 = tested on: M14
SNB-19 = tested on: SNB-19
KM12 = tested on: KM12
SW-620 = tested on: SW-620
SNB-75 = tested on: SNB-75
SK-OV-3 = tested on: SK-OV-3
OVCAR-4 = tested on: OVCAR-4
SK-MEL-2 = tested on: SK-MEL-2
SF-268 = tested on: SF-268
UACC-62 = tested on: UACC-62
IGROV-1 = tested on: IGROV-1
BT-549 = tested on: BT-549
DU-145 = tested on: DU-145
CAKI-1 = tested on: CAKI-1
HL-60 = tested on: HL-60
HOP-92 = tested on: HOP-92
LOX IMVI = tested on: LOX IMVI
MDA-MB-435 = tested on: MDA-MB-435
UACC-257 = tested on: UACC-257
CCRF-CEM = tested on: CCRF-CEM
SF-539 = tested on: SF-539
U-251 = tested on: U-251
SK-MEL-28 = tested on: SK-MEL-28
MCF7 = tested on: MCF7
SN12C = tested on: SN12C
SR = tested on: SR
HOP-62 = tested on: HOP-62
A549 = tested on: A549
K562 = tested on: K562
SK-MEL-5 = tested on: SK-MEL-5
SF-295 = tested on: SF-295
NCI-H522 = tested on: NCI-H522
MDA-N = tested on: MDA-N
PC-3 = tested on: PC-3
A498 = tested on: A498
T47D = tested on: T47D
MDA-MB-231 = tested on: MDA-MB-231
NCI-H460 = tested on: NCI-H460
ACHN = tested on: ACHN
HCT-15 = tested on: HCT-15
HCC 2998 = tested on: HCC 2998
UO-31 = tested on: UO-31
COLO 205 = tested on: COLO 205
OVCAR-8 = tested on: OVCAR-8
HT-29 = tested on: HT-29
NCI/ADR-RES = tested on: NCI/ADR-RES
RXF 393 = tested on: RXF 393
NCI-H226 = tested on: NCI-H226
Malme-3M = tested on: Malme-3M

With COc1cc2c(cc1-c1coc3cc(OCC=C(C)C)ccc3c1=O)OCO2 the GI50 (HCT-116) was 17.2 µM (inactive), the GI50 (OVCAR-3) was 61.2 µM (inactive) and the GI50 (TK-10) was 48.4 µM (inactive). The GI50 (RPMI-8226) was 15.3 µM (inactive), the GI50 (786-0) was 19.9 µM (inactive) and the GI50 (NCI-H23) was 24.4 µM (inactive). The GI50 (Hs-578T) was 28.8 µM (inactive), the GI50 (MOLT-4) was 10.9 µM (inactive) and the GI50 (OVCAR-5) was 55.6 µM (inactive). The GI50 (EKVX) was 24.3 µM (inactive), the GI50 (M14) was 26.8 µM (inactive) and the GI50 (SNB-19) was 27.4 µM (inactive). For the same compound, the GI50 (KM12) was 13.8 µM (inactive), the GI50 (SW-620) was 25.5 µM (inactive) and the GI50 (SNB-75) was 31 µM (inactive). The GI50 (SK-OV-3) was 41.5 µM (inactive), the GI50 (OVCAR-4) was 13.5 µM (inactive) and the GI50 (SK-MEL-2) was 48.1 µM (inactive). The GI50 (SF-268) was 43.4 µM (inactive), the GI50 (UACC-62) was 25.6 µM (inactive) and the GI50 (IGROV-1) was 30.8 µM (inactive). For the same compound, the GI50 (BT-549) was 16.8 µM (inactive), the GI50 (DU-145) was 34.9 µM (inactive) and the GI50 (CAKI-1) was 19.8 µM (inactive). For the same compound, the GI50 (HL-60) was 10 µM (inactive), the GI50 (HOP-92) was 37.3 µM (inactive) and the GI50 (LOX IMVI) was 19.3 µM (inactive). The GI50 (MDA-MB-435) was 9.25 µM (inactive), the GI50 (UACC-257) was 33.3 µM (inactive) and the GI50 (CCRF-CEM) was > 10 µM (inactive). For the same compound, the GI50 (SF-539) was 36.2 µM (inactive), the GI50 (U-251) was 35.2 µM (inactive) and the GI50 (SK-MEL-28) was 45.8 µM (inactive). For the same compound, the GI50 (MCF7) was 28.6 µM (inactive), the GI50 (SN12C) was 27.8 µM (inactive) and the GI50 (SR) was 6.32 µM (inactive). The GI50 (HOP-62) was 29.8 µM (inactive), the GI50 (A549) was 28.6 µM (inactive) and the GI50 (K562) was 6.85 µM (inactive). For the same compound, the GI50 (SK-MEL-5) was 16.8 µM (inactive), the GI50 (SF-295) was 33.6 µM (inactive) and the GI50 (NCI-H522) was 15.5 µM (inactive). For the same compound, the GI50 (MDA-N) was 6.7 µM (inactive), the GI50 (PC-3) was 42.8 µM (inactive) and the GI50 (A498) was 33.4 µM (inactive). For the same compound, the GI50 (T47D) was 17.7 µM (inactive), the GI50 (MDA-MB-231) was 18.5 µM (inactive) and the GI50 (NCI-H460) was 19.1 µM (inactive). The GI50 (ACHN) was 29.3 µM (inactive), the GI50 (HCT-15) was 9.77 µM and the GI50 (HCC 2998) was 15.4 µM (inactive). The GI50 (UO-31) was 31 µM (inactive) and the GI50 (COLO 205) was 29.4 µM (inactive).

With CCOC(=O)/C(=N/Nc1ccc(C)cc1)N1C(=S)N(C)N=C(C)C=C1S the GI50 (HCT-116) was > 100 µM (inactive), the GI50 (OVCAR-3) was > 100 µM (inactive) and the GI50 (TK-10) was 45.7 µM (inactive). The GI50 (RPMI-8226) was > 100 µM (inactive), the GI50 (NCI-H23) was 94.4 µM (inactive) and the GI50 (Hs-578T) was 25.7 µM (inactive). The GI50 (MOLT-4) was > 100 µM (inactive), the GI50 (OVCAR-5) was > 100 µM (inactive) and the GI50 (OVCAR-8) was 75 µM (inactive). For the same compound, the GI50 (EKVX) was > 100 µM (inactive), the GI50 (M14) was > 100 µM (inactive) and the GI50 (SNB-19) was 69.8 µM (inactive). For the same compound, the GI50 (KM12) was > 100 µM (inactive), the GI50 (SW-620) was > 100 µM (inactive) and the GI50 (SNB-75) was 29.3 µM (inactive). For the same compound, the GI50 (SK-OV-3) was 55.6 µM (inactive), the GI50 (OVCAR-4) was > 100 µM (inactive) and the GI50 (SK-MEL-2) was 58.1 µM (inactive). For the same compound, the GI50 (SF-268) was 33.8 µM (inactive), the GI50 (UACC-62) was > 100 µM (inactive) and the GI50 (IGROV-1) was > 100 µM (inactive). For the same compound, the GI50 (BT-549) was 23.1 µM (inactive), the GI50 (DU-145) was > 100 µM (inactive) and the GI50 (CAKI-1) was 77.1 µM (inactive). The GI50 (HL-60) was > 100 µM (inactive), the GI50 (HOP-92) was 49.5 µM (inactive) and the GI50 (MDA-MB-435) was > 100 µM (inactive). For the same compound, the GI50 (UACC-257) was > 100 µM (inactive), the GI50 (CCRF-CEM) was > 100 µM (inactive) and the GI50 (SF-539) was > 100 µM (inactive). The GI50 (U-251) was 24.1 µM (inactive), the GI50 (SK-MEL-28) was > 100 µM (inactive) and the GI50 (MCF7) was > 100 µM (inactive). The GI50 (SN12C) was > 100 µM (inactive), the GI50 (HT-29) was > 100 µM (inactive) and the GI50 (SR) was > 100 µM (inactive). The GI50 (A549) was > 100 µM (inactive), the GI50 (K562) was > 100 µM (inactive) and the GI50 (SK-MEL-5) was > 100 µM (inactive). The GI50 (SF-295) was 19.1 µM (inactive), the GI50 (NCI-H522) was > 100 µM (inactive) and the GI50 (NCI/ADR-RES) was > 100 µM (inactive). The GI50 (RXF 393) was 41.7 µM (inactive), the GI50 (T47D) was > 100 µM (inactive) and the GI50 (MDA-MB-231) was 32.7 µM (inactive). For the same compound, the GI50 (NCI-H460) was > 100 µM (inactive), the GI50 (ACHN) was > 100 µM (inactive) and the GI50 (HCT-15) was > 100 µM. For the same compound, the GI50 (HCC 2998) was > 100 µM (inactive), the GI50 (UO-31) was > 100 µM (inactive) and the GI50 (COLO 205) was > 100 µM (inactive).

With CSc1nc(-c2ccccc2)[nH]c(=O)n1 the GI50 (HCT-116) was > 100 µM (inactive), the GI50 (OVCAR-3) was > 100 µM (inactive) and the GI50 (TK-10) was > 100 µM (inactive). The GI50 (RPMI-8226) was > 100 µM (inactive), the GI50 (786-0) was > 100 µM (inactive) and the GI50 (NCI-H23) was > 100 µM (inactive). For the same compound, the GI50 (Hs-578T) was > 100 µM (inactive), the GI50 (MOLT-4) was > 100 µM (inactive) and the GI50 (OVCAR-5) was > 100 µM (inactive). For the same compound, the GI50 (OVCAR-8) was > 100 µM (inactive), the GI50 (EKVX) was > 100 µM (inactive) and the GI50 (M14) was > 100 µM (inactive). For the same compound, the GI50 (SNB-19) was > 100 µM (inactive), the GI50 (KM12) was > 100 µM (inactive) and the GI50 (SW-620) was > 100 µM (inactive). For the same compound, the GI50 (SK-OV-3) was > 100 µM (inactive), the GI50 (OVCAR-4) was > 100 µM (inactive) and the GI50 (SK-MEL-2) was > 100 µM (inactive). The GI50 (SF-268) was > 100 µM (inactive), the GI50 (NCI-H226) was > 100 µM (inactive) and the GI50 (UACC-62) was > 100 µM (inactive). For the same compound, the GI50 (IGROV-1) was > 100 µM (inactive), the GI50 (BT-549) was > 100 µM (inactive) and the GI50 (DU-145) was > 100 µM (inactive). For the same compound, the GI50 (CAKI-1) was > 100 µM (inactive), the GI50 (HL-60) was 54.5 µM (inactive) and the GI50 (HOP-92) was > 100 µM (inactive). The GI50 (MDA-MB-435) was > 100 µM (inactive), the GI50 (UACC-257) was > 100 µM (inactive) and the GI50 (CCRF-CEM) was > 100 µM (inactive). The GI50 (SF-539) was > 100 µM (inactive), the GI50 (U-251) was > 100 µM (inactive) and the GI50 (Malme-3M) was 59 µM (inactive). The GI50 (SK-MEL-28) was > 100 µM (inactive), the GI50 (MCF7) was > 100 µM (inactive) and the GI50 (SN12C) was > 100 µM (inactive). The GI50 (HT-29) was > 100 µM (inactive), the GI50 (HOP-62) was > 100 µM (inactive) and the GI50 (A549) was > 100 µM (inactive). For the same compound, the GI50 (SK-MEL-5) was > 100 µM (inactive), the GI50 (SF-295) was > 100 µM (inactive) and the GI50 (NCI-H522) was > 100 µM (inactive). For the same compound, the GI50 (PC-3) was > 100 µM (inactive), the GI50 (NCI/ADR-RES) was > 100 µM (inactive) and the GI50 (A498) was > 100 µM (inactive). For the same compound, the GI50 (RXF 393) was > 100 µM (inactive), the GI50 (T47D) was > 100 µM (inactive) and the GI50 (MDA-MB-231) was > 100 µM (inactive). The GI50 (ACHN) was > 100 µM (inactive), the GI50 (HCT-15) was > 100 µM and the GI50 (HCC 2998) was > 100 µM (inactive). The GI50 (UO-31) was > 100 µM (inactive) and the GI50 (COLO 205) was > 100 µM (inactive).

Source: ChEMBL document CHEMBL1201862, “PubChem BioAssay data set” (2004)
